The text below walks through data of patent US12251401B2, “Synthesis and antimicrobial uses of dinuclear silver(I) pyrazolates” (The Florida International University Board of Trustees, priority 2018, dated 2025).

The subject of one data set is Pseudomonas aeruginosa. In words: Skin and soft tissue infection (SSTI) two-layer agar model, zone of inhibition around KBr pellets. It is filed as cell-based. As to conditions: KBr pellet with 2% (w/w) of substance on P. aeruginosa lawn, incubation at 37° C. for 18 h. An excerpt: A skin and soft tissue infection (SSTI) model was used to study the antibacterial properties of three silver complexes. In this model, two layers of agar were employed to mimic a tissue infection with a nutrient rich bottom and the soft-top layer to allow for even dispersal of bacteria. The top soft agar acts like the skin and as bacteria grow they migrate towards the bottom nutrient layer mimicking an infected tissue. Frozen samples of Pseudomonas Aeruginosa were thawed and streaked on an agar plate. A single colony was selected and grown in Luria Broth (LB) for 18 h. The suspension was diluted with LB until an A600 (absorbance) of 0.5 was reached. The soft agar bacterial suspension was prepared by adding 120 mL of the above solution to 100 mL 0.8% (w/v) agar with 1% NaCl, which had been autoclaved and cooled to 45° C. before addition. The suspension was gently vortexed and 8 mL was spread evenly on the surface of 20 mL of a 1.5% (w/v) TSB agar plate (100×15 mm^2) and allowed to solidify. The plates were incubated for 2 h at 37° C. in order for the bacteria to reach log phase before bactericidal experiments were performed.
Blank KBr pellets (typically utilized for recording IR spectra) and KBr pellets with 2% (w/w) of three complexes (1), (2) and (5), each weighing between 34 and 46 mg, were evenly mulled and pressed with a two-ton load. Three blanks, containing PTA, or 4-Cl-pzH, or PPh3, were also prepared in the same manner. Pellets were carefully placed on the plates (see Example 8) after 2 h of incubation at 37° C.
A previously developed soft tissue infection (SSTI) model has been utilized for the present antibacterial studies. […] The gradient causes the bacteria to slowly travel from the slender top layer to the nutrient-rich bottom layer, much alike what would occur in a typical skin infection.

The subject of the next data set is P. aeruginosa. Briefly: Bacterial eradication assessed using the optical density method. Type of data set: cell-based, Pseudomonas aeruginosa. The text has this:
FIGS. 51A-51B show the results of bacterial eradication by compounds of complex (5) and complex (29) assessed using the optical density method.
(§1) Both complex (5) and complex (29) were comparatively tested against P. aeruginosa.

The next data set can be described thus: Solubility (qualitative). Type of data set: physicochemical.
Source text: All complexes provided herein were neutral and soluble in variety of organic solvents.
as §1

Like-named read-outs stand apart in the source and are kept apart here.

On to `O=[N+]([O-])[O-].[Ag+]` [AgNO3, silver nitrate], for which the “zone of bacterial clearing (zone of inhibition)” value (shortened to “zone … (zone of inhibition)”) in the data set with Pseudomonas aeruginosa was “Visible circular zones of bacterial clearing”.
As for `C1N2CN3CN1CP(C2)C3` [PTA, 1,3,5-triazaphosphaadamantane], the “zone … (zone of inhibition)” value with Pseudomonas aeruginosa was “much smaller but still visible zones of bacterial growth inhibition”.
With “disilver(I)-bis(μ-4-Cl-pyrazolido)(PPh3)3 [complex (2)]”, the “zone … (zone of inhibition)” value in the data set with Pseudomonas aeruginosa was “minimal bacterial clearance”.
`Clc1cn[nH]c1` [4-Cl-pzH, 4-Cl-pyrazole]: in the data set with Pseudomonas aeruginosa, the “zone … (zone of inhibition)” value is reported as “much smaller but still visible zones of bacterial growth inhibition”.
In the case of `c1ccc(P(c2ccccc2)c2ccccc2)cc1` [PPh3, triphenylphosphine], in the data set with Pseudomonas aeruginosa, the “zone … (zone of inhibition)” value was “no zone of inhibition”.
For “disilver(I)-bis(μ-4-Cl-pyrazolido)tetrakis(PTA) [complex (5)]”, the “zone … (zone of inhibition)” value in the data set on Pseudomonas aeruginosa is “Visible circular zones of bacterial clearing”. Besides, the “IC50, eradication of the bacterial culture” value with P. aeruginosa (P. aeruginosa culture, optical density, increasing concentrations) was above 2000 µg/mL. The “solubility in aqueous media” value in “Solubility (qualitative)” (aqueous media) is given as “highly soluble”. In addition, in “Solubility (qualitative)” (water and several bacterial growth media), the “solubility in water and several bacterial growth media” value was “readily soluble”.
“disilver(I)-bis(μ-3-methyl-pyrazolido)bis(PTA) [complex (29)]”: the “eradication of the bacterial culture” value with P. aeruginosa (P. aeruginosa, lowest concentration tested, 31.25 μg/mL) is around 90%. In addition, in the data set “Solubility (qualitative)”, the “solubility in water and several bacterial growth media” value was “readily soluble”.
“disilver(I)-bis(μ-4-Cl-pyrazolido)tetrakis(PPh3) [complex (1)]”: the “zone … (zone of inhibition)” value in the data set on Pseudomonas aeruginosa was “minimal bacterial clearance”.
